# pKi: −log10 of the molar value.
# Legend:
# [1] = cited from earlier work
# MM.1S cells = experiment: Glucose consumption of MM.1S cells treated with 8-NH2-Ado; type: cell-based, human; conditions: 3 μM 8-NH2-Ado, within the first five hours of treatment
# Protocol: (§1) (A) Measurement of glucose consumed by MM.1S cells treated with 3 μM 8-NH2-Ado for 5 hours. Data are means±SEM (n=3). (B) MM.1S cells were treated for the indicated number of hours with 3 μM 8-NH2-Ado or not (C) prior to lysis and immunoblot analysis of GLUT1 and GLUT4 expression. (C) Immunostaining of GLUT1 and GLUT4 in MM.1S cells treated with 3 μM 8 NH2-Ado for 5 hours. Arrow indicates intracellular aggregation of GLUT4.
# Our laboratory has worked extensively on defining the mechanism of action of purine analogues 8-amino-adenosine (8-NH2-Ado) and 8-chloro-adenosine (Gandhi, Ayres et al. 2001; Krett, Davies et al. 2004; Ghias, Ma et al. 2005). In our recent publication (Shanmugam, McBrayer et al. 2009) we report that 8-NH2-Ado targets cellular metabolism by inducing a rapid decline in glucose consumption, the magnitude of which correlates with toxicity in various myeloma cell lines.
# To explore mechanisms underlying the decrease in glucose consumption elicited by 8-NH2-Ado in the MM.1S cell line, we examined the regulation of glucose transporters that regulate the primary rate limiting step in glycolysis (Rodriguez-Enriquez, Marin-Hernandez et al. 2009). […] Since the activity of these proteins depends upon insertion into the plasma membrane, we next evaluated subcellular distribution by immunofluorescence confocal microscopy (FIG. 1C). […]
# GLUT4 [2] = experiment: Immunostaining / confocal microscopy of GLUT4 subcellular localization in MM.1S cells; type: cell-based, human; conditions: 3 μM 8-NH2-Ado, 5 hours, aggregation of GLUT4 within the trans-golgi network
# Protocol: as §1
# To explore mechanisms underlying the decrease in glucose consumption elicited by 8-NH2-Ado in the MM.1S cell line, we examined the regulation of glucose transporters that regulate the primary rate limiting step in glycolysis (Rodriguez-Enriquez, Marin-Hernandez et al. 2009). We examined expression and subcellular localization of GLUT1 and GLUT4, two highly expressed glucose transporters in B lymphocytes. Despite a 40% decline in glucose consumption rates within the first five hours of treatment (FIG. 1A), no substantial changes in GLUT1 or GLUT4 expression levels are observed at this time (FIG. 1B). The expression of both GLUT1 and 4 are diminished by 24 hours, potentially contributing to the further decline in glucose transport rates seen between 5 and 17 hours. Since the activity of these proteins depends upon insertion into the plasma membrane, we next evaluated subcellular distribution by immunofluorescence confocal microscopy (FIG. 1C). […]
# U266 myeloma cells = experiment: Doxorubicin cell death in U266 cells in 11 or 0.5 mM glucose medium (flow cytometry, DAPI staining); type: cell-based, human; conditions: 0.5 mM vs 11 mM glucose medium, 48 hours
# Protocol: (A) Primary normal B lymphocytes and CD138+ cells isolated from an MM patient and L363 cells were cultured in medium containing 0 or 5 mM glucose for 48 (NBL, L363) or 72 (MM Patient) hours. Cell viability was determined by flow cytometric analysis of AnnexinV/DAPI staining and normalized to 5 mM samples. Data are means±SEM (n=2). (B) Indicated cells were cultured as in (A) with various concentrations of glucose for 72 hours. Viable cell quantities were determined by MTS assay and normalized to 5 mM samples. Data are means±SEM. (C) U266 myeloma cells were cultured in 11 or 0.5 mM glucose-containing medium for 48 hours in the presence of the indicated concentrations of doxorubicin. Cell death was determined by flow cytometric analysis of DAPI staining. Data are means±SEM. *p<0.05 **p<0.01.
# Glucose Deprivation Attenuates Proliferation, Viability and Chemoresistance of Myeloma Cells. To independently ascertain the contribution of glucose in maintaining myeloma cell proliferation and survival we cultured L363 myeloma cells, normal B lymphocytes (NBL), and primary MM cells in medium containing either a physiological glucose concentration (5 mM) or medium devoid of glucose and assessed the impact on cellular viability (FIG. 2 A). Under these conditions, greater than 95% of L363 cells and 50% of the primary MM cells undergo apoptosis while the viability of normal cells is not impacted. […]
# GLUT4 [3] = target: T1, GLUT4 (Rattus norvegicus, UniProt P19357); conditions: primary rat adipocytes (Murata, Hruz et al.); read-out: Ki, reversible non-competitive GLUT4 inhibition; cited from earlier work
# T1 construct: host or cells: primary rat adipocytes
# T1 sequence (P19357 1-509): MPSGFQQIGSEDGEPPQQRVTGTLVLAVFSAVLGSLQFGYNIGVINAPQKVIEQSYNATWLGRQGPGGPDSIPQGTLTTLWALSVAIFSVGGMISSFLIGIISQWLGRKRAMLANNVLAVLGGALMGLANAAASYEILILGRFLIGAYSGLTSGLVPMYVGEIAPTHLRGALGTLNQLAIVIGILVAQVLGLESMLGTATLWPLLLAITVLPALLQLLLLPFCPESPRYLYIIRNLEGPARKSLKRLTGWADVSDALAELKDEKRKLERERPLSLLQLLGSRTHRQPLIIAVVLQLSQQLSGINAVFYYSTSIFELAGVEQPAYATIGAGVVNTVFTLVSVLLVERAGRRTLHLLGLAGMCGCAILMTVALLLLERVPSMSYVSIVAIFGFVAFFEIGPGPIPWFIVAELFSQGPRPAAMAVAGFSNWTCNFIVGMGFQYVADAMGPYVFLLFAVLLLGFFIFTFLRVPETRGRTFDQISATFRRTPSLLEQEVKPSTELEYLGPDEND
# [4] = epirubicin plus lonidamine vs epirubicin alone; did not reach statistical significance; cited from earlier work
# primary myeloma cells = experiment: Cytotoxicity of ritonavir towards primary myeloma cells (AnnexinV/DAPI staining); type: cell-based, human; conditions: 20 μM ritonavir, 72 hours
# Protocol: (§2) (A) KMS11 and (B) L363 cells were plated in 5 mM glucose medium with ritonavir or DMSO (D) for 17 hours. Glucose consumption rates are normalized to untreated cells (not shown). (C) KMS11 and (D) L363 cells were treated with ritonavir or DMSO for 12 hours. Relative viable cell numbers were determined by MTS assay and normalized to untreated cells (not shown). (E) KMS11 and (F) L363 cells were treated with 20 μM ritonavir with or without 0.075 (KMS11) and 0.025 μM (L363) doxorubicin or the combination for 72 hrs and cellular viability assessed by AnnexinV/DAPI staining. (G) Stable KMS11 cell lines were generated expressing empty vector or GLUT1 and GLUT1 levels were assessed by immunoblot. Representative blot is shown. N.S. indicates non-specific band. (H) Stable cell lines from part G were treated with DMSO or ritonavir (Rit) for 5 hours and glucose consumption was assessed. (1) Cell proliferation was measured in the stable cell lines described in part G treated with ritonavir (Rit) or DMSO for 72 hours. A representative experiment is shown. (J) Cell proliferation rates from multiple experiments represented by part G are normalized to DMSO-treated cells. (K) Primary myeloma cells were treated with DMSO or ritonavir for 72 hours before AnnexinV/DAPI staining. Values are normalized to DMSO-treated samples (n=1 for each patient sample). Data are means±SEM with n≧3. *P<0.05 **P<0.01 ***P<0.005.
# KMS11 cells [5] = experiment: Ritonavir with or without doxorubicin, viability by AnnexinV/DAPI staining, KMS11; type: cell-based, human; conditions: KMS11, 20 μM ritonavir with 0.075 μM doxorubicin, 72 hrs
# Protocol: as §2
# L363 cells [6] = experiment: Ritonavir with or without doxorubicin, viability by AnnexinV/DAPI staining, L363; type: cell-based, human; conditions: L363, 20 μM ritonavir with 0.025 μM doxorubicin, 72 hrs
# Protocol: as §2
# L363 cells [7] = experiment: Relative viable cell number by MTS assay with ritonavir, L363; type: cell-based, human
# Protocol: as §2
# [8] = humans (Hsu, Granneman et al. 1997); cited from earlier work
# [9] = system: KMS11 stable cell lines expressing GLUT1; experiment: Glucose consumption in stable KMS11 cell lines expressing GLUT1 or control, treated with ritonavir; type: cell-based, human; conditions: KMS11 stable line expressing GLUT1, 5 hours
# Protocol: as §2
# KMS11 cells [10] = experiment: Glucose consumption rate with ritonavir, KMS11; type: cell-based, human; conditions: KMS11, 5 mM glucose medium, 17 hours
# Protocol: as §2
# [11] = system: KMS11 stable cell lines expressing GLUT1; experiment: Cell proliferation in stable KMS11 cell lines expressing GLUT1 or control, treated with ritonavir; type: cell-based, human; conditions: KMS11 stable line expressing GLUT1, 72 hours
# Protocol: as §2
# KMS11 cells [12] = experiment: Relative viable cell number by MTS assay with ritonavir, KMS11; type: cell-based, human
# Protocol: as §2
# L363 cells [13] = experiment: Glucose consumption rate with ritonavir, L363; type: cell-based, human; conditions: L363, 5 mM glucose medium, 17 hours
# Protocol: as §2
# [14] = 2DG and docetaxel, evaluable pool of 18 patients
smiles,measurement,setting,value
O=CC[C@@H](O)[C@H](O)[C@H](O)CO [2DG],adverse event noted in multiple patients,[1]; 2DG and docetaxel phase I trial,Grade 3 hyperglycemia
same,cases of disease stabilization,[1]; [14],six
same,partial response,[1]; [14],one
"Nc1ncnc2c1nc(N)n2[C@@H]1O[C@H](CO)[C@@H](O)[C@H]1O [8-NH2-Ado, 8-amino-adenosine]",decline in glucose consumption rates,MM.1S cells,40%
same,basal cell surface localization of GLUT4,GLUT4 [2],reduces this basal cell surface localization of GLUT4
COc1cccc2c1C(=O)c1c(O)c3c(c(O)c1C2=O)C[C@@](O)(C(=O)CO)C[C@@H]3O[C@H]1C[C@H](N)[C@H](O)[C@H](C)O1 [doxorubicin],sensitivity to doxorubicin under glucose-limiting conditions,U266 myeloma cells,significantly greater sensitivity
CC(C)(C)NC(=O)[C@@H]1CN(Cc2cccnc2)CCN1C[C@@H](O)C[C@@H](Cc1ccccc1)C(=O)N[C@H]1c2ccccc2C[C@H]1O [indinavir],pKi,GLUT4 [3],4.82
O=C(O)c1nn(Cc2ccc(Cl)cc2Cl)c2ccccc12 [lonidamine],increase in overall response rate,[4],9%
CC(C)c1nc(CN(C)C(=O)N[C@H](C(=O)N[C@@H](Cc2ccccc2)C[C@H](O)[C@H](Cc2ccccc2)NC(=O)OCc2cncs2)C(C)C)cs1 [ritonavir],cell death induction in patient samples,primary myeloma cells,a range of cell death induction
same,sensitization to doxorubicin,KMS11 cells [5],recapitulates the doxorubicin-sensitizing effects of glucose limitation
same,sensitization to doxorubicin,L363 cells [6],recapitulates the doxorubicin-sensitizing effects of glucose limitation
same,"proliferation (relative viable cell numbers, MTS)",L363 cells [7],dose-dependent abrogation
same,peak plasma level routinely achieved in humans,[8],~20 µM
same,effect of GLUT1 expression on ritonavir-induced glucose transport inhibition,[9],completely mitigated
same,glucose transport (glucose consumption rate),KMS11 cells [10],dose-dependent abrogation
same,effect of GLUT1 expression on response to prolonged ritonavir treatment (proliferation),[11],robust resistance
same,"proliferation (relative viable cell numbers, MTS)",KMS11 cells [12],dose-dependent abrogation
same,glucose transport (glucose consumption rate),L363 cells [13],dose-dependent abrogation

# Source: patent publication US9207243B2, “Use of GLUT4 inhibitors and DNA damaging agents for treating multiple myeloma” (Northwestern University, priority 2011, dated 2015)
